Data set [1] in a line: n-octanol/water partition coefficient LogP (JIS Z 7260-117). Particulars: for chromatographic logP: n-octanol/water.
[2] abbreviates: LogP, n-octanol/water partition coefficient.
The mark [3] stands for this setting: n-octanol/water partition coefficient.

Molecules are shown by their SMILES.

This is an account of results in patent EP3831859A1, “COPOLYMER FOR ELECTRODE BINDER AND LITHIUM ION SECONDARY BATTERY” (SHOWA DENKO K.K., priority 2019, dated 2021).

The chromatographic logP is lipophilicity estimated from chromatographic retention. Higher therefore signals higher lipophilicity. Broadly, the LogP is a log measure of how a compound divides between an organic and an aqueous phase. A lower LogP goes with a more hydrophilic compound.

`C=CC(=O)OCC(CC)CCCC` (stereo not drawn) [2-ethylhexyl acrylate] came in with a chromatographic logP in data set [1] of 4.2.

`C=C(C)C(=O)OCC(CC)CCCC` (stereo not drawn) [2-ethylhexyl methacrylate] had a chromatographic logP in the data set “physchem” (LogP) of 4.62.

Molecule `C=CC(=O)OCCO` [2-hydroxyethyl acrylate] had a chromatographic logP in data set [1] of 0.01.

Turning to `C=C(C)C(=O)OCCO` [2-hydroxyethyl methacrylate], the chromatographic logP in data set [1] was determined as 0.43.

For `C=CC(=O)OCC(C)O` (stereo not drawn) [2-hydroxypropyl acrylate], in data set [1] (setting [2]), the chromatographic logP is 0.36.

Turning to `C=C(C)C(=O)OCC(C)O` (stereo not drawn) [2-hydroxypropyl methacrylate], the chromatographic logP in data set [1] (setting [2]) is 0.78.

In data set [1], `C=CC(=O)OCCCCO` [4-hydroxybutyl acrylate] registered a chromatographic logP of 0.59.

Take `C=CC(=O)N(C)C` [N, N-dimethylacrylamide]: the chromatographic logP in the data set “physchem” (LogP) is -0.14.

For `C=C(C)C(=O)NCC(C)O` (stereo not drawn) [N-(2-Hydroxypropyl) methacrylamide], the chromatographic logP in data set [1] (setting [2]) was 0.95.

`C=CC(=O)NCC(C)O` (stereo not drawn) [N-(2-hydroxypropyl) acrylamide]: in data set [1] (setting [2]), the chromatographic logP was -1.37.

Take `C=CC(=O)NCCN(C)C` [N-(dimethylaminoethyl) acrylamide]: the chromatographic logP in data set [1] (setting [2]) was -0.28.

On to `C=CC(=O)NCN(C)C` [N-(dimethylaminomethyl) acrylamide], for which the chromatographic logP in data set [1] (setting [2]) is -0.47.

In the case of `C=CC(=O)NCCCN(C)C` [N-(dimethylaminopropyl) acrylamide], in data set [1] (setting [2]), the chromatographic logP is -0.24.

For the molecule `C=CC(=O)NCC` [N-ethylacrylamide], in the data set “physchem” (LogP), the chromatographic logP is -0.08.

As for `C=C(C)C(=O)NCC` [N-ethylmethacrylamide], the chromatographic logP in data set [1] (setting [2]) amounted to 0.34.

For `C=C(C)C(=O)NCCO` [N-hydroxyethylmethacrylamide], the chromatographic logP in data set [1] was -0.95.

Turning to `C=CC(=O)NCO` [N-hydroxymethylacrylamide], the chromatographic logP in the data set “physchem” (LogP) was -1.38.

Take `C=C(C)C(=O)NCO` [N-hydroxymethylmethacrylamide]: in data set [1], the chromatographic logP is -0.96.

In the case of `C=C(C)C(=O)NC(C)C` [N-isopropylmethacrylamide], in data set [1] (setting [2]), the chromatographic logP stood at 0.7.

With `C=CC(=O)NC` [N-methylacrylamide], the chromatographic logP in data set [1] is -0.59.

In the case of `C=C(C)C(=O)NC` [N-methylmethacrylamide], the chromatographic logP in data set [1] (setting [2]) is -0.17.

As for `C=CC(=O)NCCC` [N-propylacrylamide], in data set [1] (setting [2]), the chromatographic logP turned out to be 0.43.

As to `C=CC(N)=O` [acrylamide], the chromatographic logP in data set [1] was -0.56.

For `C/C=C/C(=O)O` [crotonic acid], the chromatographic logP in data set [1] (setting [2]) turned out to be 0.66.

In turn, `C=CC(=O)OC1CCCCC1` [cyclohexyl acrylate] showed a chromatographic logP in data set [1] of 2.76.

Regarding `C=C(C)C(=O)OC1CCCCC1` [cyclohexyl methacrylate], the chromatographic logP in data set [1] was found to be 3.18.

Take `C=CC(=O)NC(C)(C)CC(C)=O` [diacetone acrylamide]: in the data set “physchem”, the chromatographic logP turned out to be 0.04.

In data set [1] (setting [2]), `C=CC(=O)OCC` [ethyl acrylate] showed a chromatographic logP of 1.32.

Take `O=C(O)/C=C/C(=O)O` [fumaric acid]: the chromatographic logP in data set [1] (setting [2]) was -0.45.

For `C=CC(=O)OC1CC2CCC1(C)C2(C)C` (stereo not drawn) [isoboronyl acrylate], the LogP in data set [1] (setting [3]) is recorded as 4.03.

As to `C=C(C)C(=O)OC1CC2CCC1(C)C2(C)C` (stereo not drawn) [isoboronyl methacrylate], in data set [1] (setting [3]), the LogP is 4.45.

In turn, `C=CC(=O)OCC(C)C` [isobutyl acrylate] displayed a chromatographic logP in data set [1] of 2.16.

`C=C(C)C(=O)OCC(C)C` [isobutyl methacrylate]: the chromatographic logP in data set [1] (setting [2]) came to 2.58.

`C=C(C)C(=O)OC(C)C` [isopropyl methacrylate] showed a chromatographic logP in data set [1] (setting [2]) of 2.07.

On to `C=C(CC(=O)O)C(=O)O` [itaconic acid], for which the chromatographic logP in data set [1] (setting [2]) was -0.08.

On to `O=C(O)/C=C\C(=O)O` [maleic acid], for which the chromatographic logP in data set [1] (setting [2]) was -0.45.

For `C=C(C)C(N)=O` [methacrylamide], the chromatographic logP in data set [1] (setting [2]) is -0.14.

In data set [1], `C=CC(=O)OC` [methyl acrylate] gave a chromatographic logP of 0.8.

For `C=C(C)C(=O)OC` [methyl methacrylate], the chromatographic logP in data set [1] came to 1.38.

On to `C=CC(=O)OCCCC` [n-butyl acrylate], for which the chromatographic logP in data set [1] came to 2.32. Moreover, the LogP result in data set [1] (setting [3]) is reported as “Acrylic acid-n butyl (E-1) LogP = 2.32”.

With `C=C(C)C(=O)OCCCC` [n-butyl methacrylate], the chromatographic logP in data set [1] was found to be 2.74.

As for `C=C(C)C(=O)OCCC` [n-propyl methacrylate], the chromatographic logP in data set [1] (setting [2]) worked out at 2.23.

`C=CC(=O)OCCCCCCCCCCCCCCCCCC` [stearyl acrylate]: in data set [1] (setting [2]), the chromatographic logP was found to be 9.45.

Take `C=C(C)C(=O)OCCCCCCCCCCCCCCCCCC` [stearyl methacrylate]: the chromatographic logP in data set [1] came to 9.87.

`C=CC(=O)OC(C)(C)C` [tert-butyl acrylate] gave a chromatographic logP in data set [1] of 2.06.

As to `C=C(C)C(=O)OC(C)(C)C` [tert-butyl methacrylate], the chromatographic logP in data set [1] (setting [2]) amounted to 2.48.

In turn, `C=CC(=O)OCCC(=O)O` [β-carboxyethyl acrylate] came in with a chromatographic logP in data set [1] (setting [2]) of 0.31.
